We go through two compounds from article PMC12622451, “NADPH Oxidase Inhibition Promotes Brain Resilience by Attenuating Tauopathy and Neuroinflammation in Alzheimer's Disease” (Advanced Science, 2025).

The target of test [1] is T1, human Nox4 (Homo sapiens, UniProt Q9NPH5).
T1 sequence (Q9NPH5 1-578): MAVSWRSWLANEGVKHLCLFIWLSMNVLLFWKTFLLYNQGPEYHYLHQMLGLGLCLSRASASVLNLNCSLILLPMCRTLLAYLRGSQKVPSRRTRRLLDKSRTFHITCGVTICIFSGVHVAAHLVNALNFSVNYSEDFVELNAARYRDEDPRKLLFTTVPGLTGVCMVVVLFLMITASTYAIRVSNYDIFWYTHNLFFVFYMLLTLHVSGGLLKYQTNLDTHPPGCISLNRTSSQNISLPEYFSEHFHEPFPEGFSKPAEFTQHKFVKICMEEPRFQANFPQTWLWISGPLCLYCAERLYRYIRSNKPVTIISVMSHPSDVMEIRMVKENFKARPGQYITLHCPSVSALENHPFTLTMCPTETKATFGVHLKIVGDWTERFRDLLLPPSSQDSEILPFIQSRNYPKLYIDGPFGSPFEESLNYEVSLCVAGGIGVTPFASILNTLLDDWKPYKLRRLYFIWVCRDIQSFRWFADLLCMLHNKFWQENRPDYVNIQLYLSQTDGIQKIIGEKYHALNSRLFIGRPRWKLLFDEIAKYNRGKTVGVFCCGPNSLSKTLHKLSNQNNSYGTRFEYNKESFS
Put plainly: ROS chemiluminescence with Drosophila membranes expressing human Nox4. The test is classed as biochemical.

Test [2] addresses human Duox2 (Homo sapiens, UniProt Q9NRD8). Put plainly: ROS chemiluminescence with Drosophila membranes expressing human Duox2. The test is classed as biochemical.
Test [3] addresses human Duox1 (Homo sapiens, UniProt Q9NRD9). Put plainly: ROS chemiluminescence with Drosophila membranes expressing human Duox1. The test is classed as biochemical.
In test [4] the target is T2, human Nox1 (Homo sapiens, UniProt Q9Y5S8).
T2 sequence (Q9Y5S8 1-564): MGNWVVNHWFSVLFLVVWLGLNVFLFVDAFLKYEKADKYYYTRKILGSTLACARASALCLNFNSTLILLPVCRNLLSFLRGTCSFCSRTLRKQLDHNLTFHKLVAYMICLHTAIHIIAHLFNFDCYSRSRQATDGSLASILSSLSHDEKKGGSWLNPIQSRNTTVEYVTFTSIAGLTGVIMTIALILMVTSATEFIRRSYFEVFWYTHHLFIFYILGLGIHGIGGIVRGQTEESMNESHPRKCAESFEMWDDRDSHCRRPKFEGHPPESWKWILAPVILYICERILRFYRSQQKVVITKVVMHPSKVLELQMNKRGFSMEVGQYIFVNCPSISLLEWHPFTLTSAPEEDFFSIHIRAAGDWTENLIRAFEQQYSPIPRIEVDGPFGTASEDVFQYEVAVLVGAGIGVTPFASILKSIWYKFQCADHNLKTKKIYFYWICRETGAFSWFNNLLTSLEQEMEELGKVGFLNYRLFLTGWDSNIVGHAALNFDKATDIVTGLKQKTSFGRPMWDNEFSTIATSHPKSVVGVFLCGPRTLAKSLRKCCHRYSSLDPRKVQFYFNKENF
Put plainly: ROS chemiluminescence with Drosophila membranes expressing human Nox1. The test is classed as biochemical.

For test [5], the target named is T3, human Nox2 (Homo sapiens, UniProt P04839).
T3 construct: gene CYBB
T3 sequence (P04839 2-570): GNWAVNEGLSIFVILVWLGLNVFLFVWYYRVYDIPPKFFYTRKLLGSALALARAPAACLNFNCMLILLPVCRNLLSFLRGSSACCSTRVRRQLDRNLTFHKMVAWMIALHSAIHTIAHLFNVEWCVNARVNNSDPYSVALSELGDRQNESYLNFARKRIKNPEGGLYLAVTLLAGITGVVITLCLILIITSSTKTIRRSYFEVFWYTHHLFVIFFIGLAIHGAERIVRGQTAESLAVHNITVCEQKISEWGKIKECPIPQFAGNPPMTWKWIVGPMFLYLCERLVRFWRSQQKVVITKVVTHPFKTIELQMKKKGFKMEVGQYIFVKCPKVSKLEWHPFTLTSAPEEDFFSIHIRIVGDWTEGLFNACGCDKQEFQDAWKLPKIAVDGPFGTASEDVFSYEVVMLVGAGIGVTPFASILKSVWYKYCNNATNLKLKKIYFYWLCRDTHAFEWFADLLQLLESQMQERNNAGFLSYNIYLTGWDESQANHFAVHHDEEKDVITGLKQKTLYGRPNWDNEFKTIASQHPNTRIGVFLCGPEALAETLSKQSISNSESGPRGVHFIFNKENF
Put plainly: ROS chemiluminescence with Drosophila membranes expressing human Nox2. The test is classed as biochemical.

Test [6] addresses T4, human Nox5 (Homo sapiens, UniProt Q96PH1).
T4 sequence (Q96PH1 1-765): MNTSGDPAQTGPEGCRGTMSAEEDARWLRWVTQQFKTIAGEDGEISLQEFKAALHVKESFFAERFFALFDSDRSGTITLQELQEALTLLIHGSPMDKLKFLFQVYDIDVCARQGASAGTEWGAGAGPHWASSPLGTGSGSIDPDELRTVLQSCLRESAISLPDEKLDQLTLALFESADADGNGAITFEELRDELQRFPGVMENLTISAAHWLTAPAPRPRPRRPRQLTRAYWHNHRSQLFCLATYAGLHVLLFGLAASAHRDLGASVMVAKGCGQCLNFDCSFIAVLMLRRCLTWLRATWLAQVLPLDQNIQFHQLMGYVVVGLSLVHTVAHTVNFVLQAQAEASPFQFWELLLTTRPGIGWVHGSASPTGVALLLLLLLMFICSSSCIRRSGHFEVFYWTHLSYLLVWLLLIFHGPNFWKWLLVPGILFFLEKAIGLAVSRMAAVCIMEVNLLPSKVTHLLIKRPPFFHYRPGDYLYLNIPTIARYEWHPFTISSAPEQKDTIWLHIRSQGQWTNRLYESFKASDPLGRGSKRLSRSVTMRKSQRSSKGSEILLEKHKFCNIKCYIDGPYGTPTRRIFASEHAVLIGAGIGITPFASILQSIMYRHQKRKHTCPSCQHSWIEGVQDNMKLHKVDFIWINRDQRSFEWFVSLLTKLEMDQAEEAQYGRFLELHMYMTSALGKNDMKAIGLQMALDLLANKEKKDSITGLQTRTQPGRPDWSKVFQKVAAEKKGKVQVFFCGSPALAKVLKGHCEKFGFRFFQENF
Put plainly: ROS chemiluminescence with Drosophila membranes expressing human Nox5. The test is classed as biochemical.

Test [7] concerns the target T1, human Nox4. Put plainly: lucigenin chemiluminescence with Drosophila membranes expressing human Nox4. The test is classed as cell-based.
For test [8], the target named is T3, human Nox2. Put plainly: lucigenin chemiluminescence with Drosophila membranes expressing human Nox2. The test is classed as cell-based.
For test [9], the target named is T2, human Nox1.

human Duox2, sequence (Q9NRD8 26-1548): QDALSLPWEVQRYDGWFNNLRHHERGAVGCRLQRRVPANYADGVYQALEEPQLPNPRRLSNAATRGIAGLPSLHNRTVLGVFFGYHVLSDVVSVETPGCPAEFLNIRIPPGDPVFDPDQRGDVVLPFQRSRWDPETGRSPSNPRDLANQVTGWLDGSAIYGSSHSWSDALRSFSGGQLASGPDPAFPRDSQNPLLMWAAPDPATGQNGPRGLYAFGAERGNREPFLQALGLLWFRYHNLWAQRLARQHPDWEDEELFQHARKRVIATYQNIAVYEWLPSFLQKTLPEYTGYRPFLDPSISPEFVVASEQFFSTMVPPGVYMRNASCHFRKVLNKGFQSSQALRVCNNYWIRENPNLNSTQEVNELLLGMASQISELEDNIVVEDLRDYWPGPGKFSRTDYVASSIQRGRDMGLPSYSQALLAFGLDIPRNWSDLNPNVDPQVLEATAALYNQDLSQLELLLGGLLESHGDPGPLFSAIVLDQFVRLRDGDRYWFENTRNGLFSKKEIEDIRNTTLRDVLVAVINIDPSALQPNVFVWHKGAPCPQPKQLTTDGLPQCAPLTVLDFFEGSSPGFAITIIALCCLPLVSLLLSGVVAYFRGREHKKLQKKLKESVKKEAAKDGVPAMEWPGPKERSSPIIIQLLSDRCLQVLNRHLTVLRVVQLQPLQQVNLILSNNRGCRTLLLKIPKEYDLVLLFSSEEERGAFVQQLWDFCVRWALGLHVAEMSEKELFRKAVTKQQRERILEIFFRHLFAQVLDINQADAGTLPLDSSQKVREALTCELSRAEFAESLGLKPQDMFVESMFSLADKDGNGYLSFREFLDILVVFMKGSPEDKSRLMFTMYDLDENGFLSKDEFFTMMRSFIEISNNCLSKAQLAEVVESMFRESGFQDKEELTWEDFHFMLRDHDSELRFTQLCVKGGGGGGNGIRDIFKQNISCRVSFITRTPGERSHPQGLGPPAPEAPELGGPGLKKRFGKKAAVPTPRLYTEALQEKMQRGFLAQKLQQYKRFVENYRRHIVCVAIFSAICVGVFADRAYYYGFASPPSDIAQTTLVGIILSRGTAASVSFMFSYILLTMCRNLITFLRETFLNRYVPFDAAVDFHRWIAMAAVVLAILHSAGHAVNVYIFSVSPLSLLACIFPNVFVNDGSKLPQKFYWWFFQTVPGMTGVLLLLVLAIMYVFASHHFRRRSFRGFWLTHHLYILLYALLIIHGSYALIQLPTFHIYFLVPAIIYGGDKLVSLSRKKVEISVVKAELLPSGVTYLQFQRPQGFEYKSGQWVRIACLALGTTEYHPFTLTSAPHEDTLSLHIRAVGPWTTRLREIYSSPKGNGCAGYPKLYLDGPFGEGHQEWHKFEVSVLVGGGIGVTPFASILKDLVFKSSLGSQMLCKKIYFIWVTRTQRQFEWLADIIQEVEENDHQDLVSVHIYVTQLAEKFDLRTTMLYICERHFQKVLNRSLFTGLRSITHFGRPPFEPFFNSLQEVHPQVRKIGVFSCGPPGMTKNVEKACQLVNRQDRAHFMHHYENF
human Duox1, sequence (Q9NRD9 22-1551): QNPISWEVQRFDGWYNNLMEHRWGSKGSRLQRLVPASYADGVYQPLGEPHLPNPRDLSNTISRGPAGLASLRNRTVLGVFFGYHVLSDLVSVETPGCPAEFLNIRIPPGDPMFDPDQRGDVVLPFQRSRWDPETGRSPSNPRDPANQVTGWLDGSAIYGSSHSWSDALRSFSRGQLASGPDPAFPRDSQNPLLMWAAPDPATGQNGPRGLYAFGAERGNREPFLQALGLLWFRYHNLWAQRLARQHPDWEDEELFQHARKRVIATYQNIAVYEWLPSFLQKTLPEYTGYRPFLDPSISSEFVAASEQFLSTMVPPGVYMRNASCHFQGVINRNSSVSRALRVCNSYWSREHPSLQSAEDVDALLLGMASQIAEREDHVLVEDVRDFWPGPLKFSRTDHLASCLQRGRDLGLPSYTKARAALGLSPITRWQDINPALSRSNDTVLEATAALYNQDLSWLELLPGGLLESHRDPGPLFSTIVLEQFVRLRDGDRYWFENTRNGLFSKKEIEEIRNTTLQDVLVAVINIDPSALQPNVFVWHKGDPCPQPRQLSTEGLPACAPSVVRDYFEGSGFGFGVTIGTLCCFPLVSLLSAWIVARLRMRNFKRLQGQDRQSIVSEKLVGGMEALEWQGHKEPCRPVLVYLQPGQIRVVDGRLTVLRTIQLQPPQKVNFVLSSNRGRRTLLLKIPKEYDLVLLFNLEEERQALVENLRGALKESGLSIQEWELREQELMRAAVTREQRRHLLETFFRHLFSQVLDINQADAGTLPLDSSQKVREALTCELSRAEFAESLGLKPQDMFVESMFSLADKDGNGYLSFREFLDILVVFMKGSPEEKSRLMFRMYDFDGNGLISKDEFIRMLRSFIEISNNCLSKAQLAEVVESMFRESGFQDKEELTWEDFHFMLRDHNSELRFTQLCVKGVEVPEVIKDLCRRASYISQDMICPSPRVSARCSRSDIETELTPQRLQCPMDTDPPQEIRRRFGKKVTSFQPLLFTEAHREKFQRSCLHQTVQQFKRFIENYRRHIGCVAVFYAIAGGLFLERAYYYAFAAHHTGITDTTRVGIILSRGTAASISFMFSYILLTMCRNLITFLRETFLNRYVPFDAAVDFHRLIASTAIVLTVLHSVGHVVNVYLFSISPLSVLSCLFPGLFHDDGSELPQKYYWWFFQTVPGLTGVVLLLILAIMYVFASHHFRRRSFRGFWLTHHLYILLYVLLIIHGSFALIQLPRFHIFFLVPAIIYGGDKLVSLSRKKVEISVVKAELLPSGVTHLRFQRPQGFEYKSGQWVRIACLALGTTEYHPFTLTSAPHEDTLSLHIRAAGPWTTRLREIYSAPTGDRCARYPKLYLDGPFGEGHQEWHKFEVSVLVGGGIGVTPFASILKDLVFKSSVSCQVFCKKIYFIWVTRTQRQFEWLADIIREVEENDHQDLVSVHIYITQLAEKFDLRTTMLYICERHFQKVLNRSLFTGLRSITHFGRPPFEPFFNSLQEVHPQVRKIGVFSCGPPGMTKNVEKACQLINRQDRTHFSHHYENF

Usually IC50 stands for the midpoint of a concentration-inhibition curve. For the compound `O=C(Nc1nnc(-c2ccccc2)o1)c1ccc(F)c(C(F)(F)F)c1` [CRB-2131, 4‐fluoro‐N‐(5‐phenyl‐1,3,4‐oxadiazol‐2‐yl)‐3‐(trifluoromethyl) benzamide], the half-inhibitory concentration (IC50) in test [1], in test [2], in [3], in test [4], in test [5] and in [6] was 200 to 300 nM in each case.
With `c1ccc2c(c1)[I+]c1ccccc1-2` [DPI, Diphenyleneiodonium chloride], the “lucigenin chemiluminescence with Drosophila membranes expressing human Nox4” value in test [7] is “DPI exhibited low Nox inhibitory activity, while GSK2795039 showed very minimal inhibition”. Moreover, the “lucigenin chemiluminescence with Drosophila membranes expressing human Nox2” value in test [8] is reported as “DPI exhibited low Nox inhibitory activity, while GSK2795039 showed very minimal inhibition”. Besides, in [9], the “lucigenin chemiluminescence with Drosophila membranes expressing human Nox1” value is “DPI exhibited low Nox inhibitory activity, while GSK2795039 showed very minimal inhibition”.
